From PubChem BioAssay AID1918939 (Molecular Pharmacology Branch, DTP, NCI, 2023)

Test system: 653999-131-R-J2-PDC complex spheroid viability
Assay: Anticancer human tumor 653999-131-R-J2-PDC patient-derived lung adenocarcinoma cell line growth inhibition
Conditions: for IC50: curve of first compound; for viability, T/C: stronger effect = lower value; active means viability on the fitted dose curve at most 10% of control; inactive means the rest
In short: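 Multicellular complex spheroids of tumor cells with human endothelial cells (HUVEC) and mesenchymal stem cells; the LSD1 inhibitor iadademstat was combined with standard-of-care or investigational agents. Top concentration at or near clinical Cmax, half-log dilutions; final DMSO ≤0.25%.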
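Further: spheroids exposed to agents for seven days before readout.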

CC[C@@]1(O)C(=O)OCc2c1cc1n(c2=O)Cc2cc3c(CN(C)C)c(O)ccc3nc2-1 + NC1CCC(NC2CC2c2ccccc2)CC1
6.87 nM: IC50 (second compound 10 µM)
5.51 nM: IC50 (second compound 3.16 µM)
inactive: viability, T/C (second compound 0.1 µM, first compound 0.000316 µM) 89.3% | viability, T/C (second compound 0.1 µM, first compound 0.001 µM) 85.3% | viability, T/C (second compound 0.1 µM, first compound 0.00316 µM) 50.7% | viability, T/C (second compound 0.1 µM, first compound 0.01 µM) 40.2% | viability, T/C (second compound 0.1 µM, first compound 0.0316 µM) 27.5% | viability, T/C (second compound 0.1 µM, first compound 0.1 µM) 19.8% | viability, T/C (second compound 0.316 µM, first compound 0.000316 µM) 87% | viability, T/C (second compound 0.316 µM, first compound 0.001 µM) 80.4% | viability, T/C (second compound 0.316 µM, first compound 0.00316 µM) 57.9% | viability, T/C (second compound 0.316 µM, first compound 0.01 µM) 37.9% | viability, T/C (second compound 0.316 µM, first compound 0.0316 µM) 26.2% | viability, T/C (second compound 0.316 µM, first compound 0.1 µM) 18% | viability, T/C (second compound 1 µM, first compound 0.000316 µM) 94.7% | viability, T/C (second compound 1 µM, first compound 0.001 µM) 73.2% | viability, T/C (second compound 1 µM, first compound 0.00316 µM) 61.6% | viability, T/C (second compound 1 µM, first compound 0.01 µM) 35.9% | viability, T/C (second compound 1 µM, first compound 0.0316 µM) 25.1% | viability, T/C (second compound 1 µM, first compound 0.1 µM) 21.6% | viability, T/C (second compound 3.16 µM, first compound 0.000316 µM) 78.7% | viability, T/C (second compound 3.16 µM, first compound 0.001 µM) 75.3% | viability, T/C (second compound 3.16 µM, first compound 0.00316 µM) 52.7% | viability, T/C (second compound 3.16 µM, first compound 0.01 µM) 44.1% | viability, T/C (second compound 3.16 µM, first compound 0.0316 µM) 29.9% | viability, T/C (second compound 3.16 µM, first compound 0.1 µM) 20.7% | viability, T/C (second compound 10 µM, first compound 0.000316 µM) 91.9% | viability, T/C (second compound 10 µM, first compound 0.001 µM) 77.9% | viability, T/C (second compound 10 µM, first compound 0.00316 µM) 63.9% | viability, T/C (second compound 10 µM, first compound 0.01 µM) 44.3% | viability, T/C (second compound 10 µM, first compound 0.0316 µM) 27.1% | viability, T/C (second compound 10 µM, first compound 0.1 µM) 19.7%
4.65 nM: IC50 (second compound 0.1 µM)
4.8 nM: IC50 (second compound 1 µM)
5.23 nM: IC50 (second compound 0.316 µM)
